Experimental data from PMC8151276, “An Integrated Approach toward NanoBRET Tracers for Analysis of GPCR Ligand Engagement” (Molecules, 2021).

Legend:
FSHR = biological target: T1, FSHR (Homo sapiens, UniProt P23945); test: NanoBRET screen HiBiT-FSHR in HEK293; assay type: binding
T1 construct: purchased Promega (in-house HiBiT-GPCR construct library, NanoBRET)
T1 sequence (P23945 18-695): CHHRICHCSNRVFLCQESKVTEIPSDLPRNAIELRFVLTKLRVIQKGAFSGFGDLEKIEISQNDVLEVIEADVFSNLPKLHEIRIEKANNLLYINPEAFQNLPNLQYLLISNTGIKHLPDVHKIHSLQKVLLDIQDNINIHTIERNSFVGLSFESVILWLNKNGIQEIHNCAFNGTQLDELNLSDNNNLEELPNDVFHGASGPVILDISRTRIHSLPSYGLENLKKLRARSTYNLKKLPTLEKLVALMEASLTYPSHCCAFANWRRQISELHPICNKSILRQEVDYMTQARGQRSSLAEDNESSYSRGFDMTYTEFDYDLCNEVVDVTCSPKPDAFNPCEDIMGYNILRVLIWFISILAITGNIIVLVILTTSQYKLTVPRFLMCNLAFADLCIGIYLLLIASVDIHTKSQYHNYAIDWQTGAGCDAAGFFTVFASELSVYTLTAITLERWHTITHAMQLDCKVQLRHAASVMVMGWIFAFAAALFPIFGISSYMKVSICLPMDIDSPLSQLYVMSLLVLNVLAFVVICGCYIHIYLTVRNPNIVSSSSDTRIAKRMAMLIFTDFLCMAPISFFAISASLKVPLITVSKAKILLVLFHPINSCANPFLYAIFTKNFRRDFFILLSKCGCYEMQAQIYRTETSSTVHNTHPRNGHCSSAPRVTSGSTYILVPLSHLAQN
Description: (§1) Each tracer candidate was screened across the entire library of HiBiT-GPCR constructs using NanoBRET as the detection modality. As depicted in Figure 4A, the specificity of interactions was evaluated through decrease in BRET due to competitive displacement of a bound tracer by excess parental compound. Each tracer was analyzed for binding to each HiBiT-GPCR fusion in the absence and in the presence of competing parental compound. Briefly, HEK293 cells were transfected with HiBiT-GPCR constructs diluted into promoterless DNA to reduce expression and maximize translocation to the cell surface. Each tracer candidate was then screened at concentrations of 1 μM and 0.1 μM across cells expressing these fusions. Cells were treated for 1.5 h with tracer either alone or in the presence of 20 μM competing parental compound (i.e., control). BRET was measured upon addition of purified LgBiT and subsequent complementation with HiBiT genetically fused to a GPCR. The specificity of interactions was assessed through a decrease in BRET signal due to competitive displacement of the bound tracer. To further gauge the robustness of these interactions, the fold response over the control (i.e., BRETtracer/BRETcontrol) was calculated. We chose a 1.5-fold response, which translates to ≥7-fold signal over noise as the minimal threshold required to score an interaction as positive. […]. Below we highlight the screening results obtained for our exemplary fluorescent tracers based on Clozapine, Amitriptyline and AZD1283.
(§2) HiBiT-GPCR DNA constructs were diluted in 10 mM Tris pH 8 to a final concentration of 0.01 μg/μL, arrayed in 96-well plates and stored at −20 °C. For transfection, HEK293 cells were suspended in Opti-MEM (without phenol red) supplemented with 2% fetal bovine serum (Seradigm) and 100 units/mL penicillin–streptomycin (Gibco) at a final concentration of 220,000 cells/mL and dispensed into white 96-well plates at 90 μL/well. Subsequent transfections and screens were carried using an Agilent Bravo Automated Liquid Handling Platform. First, the 96-well HiBiT DNA arrays were diluted 25-fold in Opti-MEM (without serum or phenol red) to a final concentration of 0.0004 μg/μL and 20 μL of the diluted DNAs were transferred into new 96-well plates. Next, promoterless carrier DNA (1 μg/μL) was diluted 25-fold (0.04 μg/μL) and then dispensed into the diluted arrays at 20 μL/well. Following brief mixing, Viafect transfection reagent (Promega) diluted 16-fold into Opti-MEM was dispensed into the plates at 40 μL/well. After mixing by pipetting, plates were incubated for 10 min on the pipetting station deck. The DNA-transfection reagent complexes were then added to plates containing cells. To facilitate the screen, 10 μL of DNA-transfection reagent complexes were added in duplicates to the top 4 and bottom 4 rows, resulting in two identical 48-well arrays per plate. Plates with transfected cells were incubated for 18–20 h at 37 °C/5% CO2. A screen of each tracer across the entire library using two different concentrations requires duplicate plates of transfected cells. Depending on the number of tracers being screened, transfections can be scaled up using the same ratios. The next day, for each tracer, four 20× screening solutions in tracer dilution buffer (Promega) were prepared: two duplicates at final concentration of 20 μM and two duplicates at a final concentration of 2 μM. A competing unmodified compound was added to one of each duplicate at a final concentration of 400 μM. The four resulting solutions were diluted 4-fold in Opti-MEM without serum or phenol red to generate 5× solutions (5 µM and 0.5 µM tracer +/− 100 μM competing compound). To screen the library, a BioTek MultiFlo FX liquid dispenser was used to dispense 22.5 µL of tracer solution to the top 4 rows and 22.5 µL tracer + competing compound solution to the 4 bottom rows. Plates were briefly mixed on an orbital shaker and incubated for 1.5 h at room temperature. […]

C3AR1 = biological target: T2, C3AR1 (Homo sapiens, UniProt Q16581); test: NanoBRET screen HiBiT-C3AR1 in HEK293; assay type: binding
T2 construct: purchased Promega (in-house HiBiT-GPCR construct library, NanoBRET)
T2 sequence (Q16581 1-482): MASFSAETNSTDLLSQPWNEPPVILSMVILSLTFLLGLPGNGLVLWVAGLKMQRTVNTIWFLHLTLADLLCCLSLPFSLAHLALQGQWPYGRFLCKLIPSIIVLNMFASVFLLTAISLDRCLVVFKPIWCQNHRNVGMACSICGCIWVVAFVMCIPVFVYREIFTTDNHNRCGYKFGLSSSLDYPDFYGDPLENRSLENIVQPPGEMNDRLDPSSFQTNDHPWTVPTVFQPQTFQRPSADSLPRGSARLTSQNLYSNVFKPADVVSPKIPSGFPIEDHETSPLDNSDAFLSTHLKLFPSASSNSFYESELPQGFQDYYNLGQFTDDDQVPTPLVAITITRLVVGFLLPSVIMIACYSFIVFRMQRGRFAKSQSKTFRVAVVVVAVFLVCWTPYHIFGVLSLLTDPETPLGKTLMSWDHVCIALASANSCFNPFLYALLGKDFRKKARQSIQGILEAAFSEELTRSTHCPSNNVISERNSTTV
Description: as §1, §2

[1] = tracer at 0.1μM, listed as amitriptyline-b-2-NB590

## CN1CCN(C2=Nc3cc(Cl)ccc3Nc3ccc(CNC(=O)CCOCCOCCOCCOCCNC(=O)CCc4ccc5n4[B-](F)(F)[N+]4=C(c6ccc[nH]6)C=CC4=C5)cc32)CC1 [Clozapine-b-2-NB590]
FSHR; FSHR, 0.1μM tracer
  NanoBRET Fold Response: 1.01
FSHR; FSHR, 1μM tracer
  NanoBRET Fold Response: 1.05
C3AR1; C3AR1, 0.1μM tracer
  NanoBRET Fold Response: 0.99
C3AR1; C3AR1, 1μM tracer
  NanoBRET Fold Response: 1.02

## CN(C)CCC=C1c2ccccc2CCc2ccc(C(=O)NCCNC(=O)CCOCCOCCOCCOCCNC(=O)CCc3ccc4n3[B-](F)(F)[N+]3=C(c5ccc[nH]5)C=CC3=C4)cc21 [Amitriptyline-b-2-NB590]
FSHR; [1]
  NanoBRET Fold Response: 1.13
FSHR; tracer at 1μM, listed as amitriptyline-b-2-NB590
  NanoBRET Fold Response: 0.96
C3AR1; [1]
  NanoBRET Fold Response: 1.19
C3AR1; tracer at 1μM
  NanoBRET Fold Response: 1.00

## CCOC(=O)c1cc(C#N)c(N2CCC(C(=O)NS(=O)(=O)Cc3ccccc3/C=C/C(=O)NCCNC(=O)CCc3ccc4n3[B-](F)(F)[N+]3=C(c5ccc[nH]5)C=CC3=C4)CC2)nc1C [AZD1283-1-NB590]
FSHR; FSHR, 0.1μM
  NanoBRET Fold Response: 0.99
FSHR; FSHR, 1μM
  NanoBRET Fold Response: 1.03
C3AR1; C3AR1, 0.1μM
  NanoBRET Fold Response: 1.10
C3AR1; C3AR1, 1μM
  NanoBRET Fold Response: 1.09

## CC(C)N(CC[C@H](c1ccccc1)c1cc(CCNC(=O)CCOCCOCCOCCOCCNC(=O)CCc2ccc3n2[B-](F)(F)[N+]2=C(c4ccc[nH]4)C=CC2=C3)ccc1O)C(C)C [Tolterodine-2-NB590]
FSHR; FSHR, tracer 0.1μM
  NanoBRET Fold Response: 0.78
FSHR; FSHR, tracer 1μM
  NanoBRET Fold Response: 1.08
C3AR1; C3AR1, tracer 0.1μM
  NanoBRET Fold Response: 1.04
C3AR1; C3AR1, tracer 1μM
  NanoBRET Fold Response: 1.01

## CC(C)N(CC[C@H](c1ccccc1)c1cc(CCNC(=O)c2ccc(CNC(=O)CCc3ccc4n3[B-](F)(F)[N+]3=C(c5ccc[nH]5)C=CC3=C4)cc2)ccc1O)C(C)C [Tolterodine-BZ-NB590]
FSHR; FSHR, tracer 0.1μM
  NanoBRET Fold Response: 1.08
FSHR; FSHR, tracer 1μM
  NanoBRET Fold Response: 1.09
C3AR1; C3AR1, tracer 0.1μM
  NanoBRET Fold Response: 1.00
C3AR1; C3AR1, tracer 1μM
  NanoBRET Fold Response: 0.99

## O=C(CCOCCOCCOCCOCCNC(=O)CCc1ccc2n1[B-](F)(F)[N+]1=C(c3ccc[nH]3)C=CC1=C2)NCCCN1CCN(C2=Nc3ccccc3Oc3ccc(Cl)cc32)CC1 [Loxapine-a-2-NB590]
FSHR; FSHR, tracer 0.1μM
  NanoBRET Fold Response: 0.98
FSHR; FSHR, tracer 1μM
  NanoBRET Fold Response: 1.16
C3AR1; C3AR1, tracer 0.1μM
  NanoBRET Fold Response: 0.97
C3AR1; C3AR1, tracer 1μM
  NanoBRET Fold Response: 1.08

## CN1CCN(C2=Nc3cc(Cl)ccc3N(CC(=O)NCCOCCOCCOCCOCCNC(=O)CCc3ccc4n3[B-](F)(F)[N+]3=C(c5ccc[nH]5)C=CC3=C4)c3ccccc32)CC1 [Clozapine-c-2-NB590]
FSHR; FSHR, 0.1μM tracer
  NanoBRET Fold Response: 1.02
FSHR; FSHR, 1μM tracer
  NanoBRET Fold Response: 1.05
C3AR1; C3AR1, 0.1μM tracer
  NanoBRET Fold Response: 0.99
C3AR1; C3AR1, 1μM tracer
  NanoBRET Fold Response: 1.00

## CN(C)CCC=C1c2ccccc2CCc2ccc(C(=O)NCCNC(=O)CCOCCOCCOCCOCCNC(=O)CCc3ccc4n3[B-](F)(F)[N+]3=C(c5ccc[nH]5)C=CC3=C4)cc21 [Amitriptyline-a-2-NB590]
FSHR; tracer at 0.1μM
  NanoBRET Fold Response: 1.02
FSHR; tracer at 1μM
  NanoBRET Fold Response: 1.06
C3AR1; tracer at 0.1μM
  NanoBRET Fold Response: 0.99
C3AR1; tracer at 1μM
  NanoBRET Fold Response: 1.01
